From patent publication US20040077674A1, “Mappicine analogs, intermediates in the synthesis of mappicine analogs and methods of synthesis of mappicine analogs” (priority 2002, published 2004)

Key:
[1] = biological target: T1, RNase H activity of HIV reverse transcriptase (Human immunodeficiency virus type 1 group M subtype B, UniProt P03366); assay: Fluorescence (FRET)-based RNase H assay of HIV reverse transcriptase; format: biochemical, HIV-1; details: 10 μM inhibitor concentration, activity in presence / in absence of analog x 100
T1 construct: 2.5 nM of the p51/p66 RT heterodimer in the assay; made in house

[2] = biological target: T2, RNA-dependent DNA polymerase activity of HIV reverse transcriptase (Human immunodeficiency virus type 1 group M subtype B, UniProt P03366); assay: RNA-dependent DNA polymerase activity assay of HIV reverse transcriptase; format: biochemical, HIV-1; details: 10 μM inhibitor concentration, activity in presence / in absence of analog x 100
T2 construct: made in house
Experimental: In separate representative assays, mappicine analogs were tested for their ability to inhibit the RNA-dependent DNA polymerase activity of HIV reverse transcriptase and for their ability to inhibit the RNase H activity of HIV reverse transcriptase. The assay for RNA-dependent DNA polymerase activity is discussed in Borkow, G. et al., “Inhibition of the Ribonuclease H and DNA Polymerase Activities of HIV-1 Reverse Transcriptase by N-(4-tert-Butylbenzoyl)-2-hydroxy-1-naphthaldehyde Hydrazone,” Biochemistry 1997, 36, 3179-3185, a copy of which is attached hereto and the disclosure of which is incorporated herein by reference. Assays were carried out in the absence and in the presence of mappicine analogs (10 μM final concentration). The results are reported as % residual activity, which is the RNA-dependent DNA polymerase activity of the enzyme in the presence of the mappicine analog divided by the RNA-dependent activity of the enzyme in the absence of the mappicine analog, multiplied by 100.

Structure (SMILES)	Residual activity (%) RNase H [1] [%]	Residual activity (%) Polymerase [2] [%]	further results
CCC(O)c1cc2n(c(=O)c1C)Cc1c-2nc2ccc(C)cc2c1[Si](C)(C)C (centres unmarked) [5 (5Cα)]	62	68	
CCC(=O)c1cc2n(c(=O)c1C)Cc1c-2nc2ccc(C)cc2c1[Si](C)(C)C [5 (5Cακ)]	109	93	
Cc1ccc2nc3c(c([Si](C)(C)C)c2c1)Cn1c-3cc(C(O)C(C)(C)C)c(C)c1=O (centres unmarked) [5 (5Cβ)]	80	72	
Cc1ccc2nc3c(c([Si](C)(C)C)c2c1)Cn1c-3cc(C(=O)C(C)(C)C)c(C)c1=O [5 (5Cβκ)]	92	76	
Cc1ccc2nc3c(c([Si](C)(C)C)c2c1)Cn1c-3cc(C(O)CCC2CCCCC2)c(C)c1=O (centres unmarked) [5 (5Cδ)]	103	41	
Cc1ccc2nc3c(c([Si](C)(C)C)c2c1)Cn1c-3cc(C(=O)CCC2CCCCC2)c(C)c1=O [5 (5Cδκ)]	99	59	
Cc1ccc2nc3c(c([Si](C)(C)C)c2c1)Cn1c-3cc(C(O)Cc2ccccc2)c(C)c1=O (centres unmarked) [5 (5Cε)]	93	87	
CCC(O)c1cc2n(c(=O)c1C)Cc1c-2nc2ccc(OC)cc2c1[Si](C)(C)C (centres unmarked) [5 (5Dα)]	78	88	
CCC(=O)c1cc2n(c(=O)c1C)Cc1c-2nc2ccc(OC)cc2c1[Si](C)(C)C [5 (5Dακ)]	86	50	
COc1ccc2nc3c(c([Si](C)(C)C)c2c1)Cn1c-3cc(C(O)C(C)(C)C)c(C)c1=O (centres unmarked) [5 (5Dβ)]	102	76	
COc1ccc2nc3c(c([Si](C)(C)C)c2c1)Cn1c-3cc(C(=O)C(C)(C)C)c(C)c1=O [5 (5Dβκ)]	86	64	
COc1ccc2nc3c(c([Si](C)(C)C)c2c1)Cn1c-3cc(C(O)CCC2CCCCC2)c(C)c1=O (centres unmarked) [5 (5Dδ)]	96	57	
COc1ccc2nc3c(c([Si](C)(C)C)c2c1)Cn1c-3cc(C(=O)CCC2CCCCC2)c(C)c1=O [5 (5Dδκ)]	92	40	
COc1ccc2nc3c(c([Si](C)(C)C)c2c1)Cn1c-3cc(C(O)Cc2ccccc2)c(C)c1=O (centres unmarked) [5 (5Dε)]	70	48	
CCCCCCc1c2c(nc3ccccc13)-c1cc(C(O)CC)c(C)c(=O)n1C2 (centres unmarked) [5 (8Aα)]	83	42	
CCCCCCc1c2c(nc3ccccc13)-c1cc(C(=O)CC)c(C)c(=O)n1C2 [5 (8Aακ)]	77	53	
CCCCCCc1c2c(nc3ccccc13)-c1cc(C(O)C(C)(C)C)c(C)c(=O)n1C2 (centres unmarked) [5 (8Aβ)]	91	103	
CCCCCCc1c2c(nc3ccccc13)-c1cc(C(=O)C(C)(C)C)c(C)c(=O)n1C2 [5 (8Aβκ)]	96	76	
CCCCCCc1c2c(nc3ccccc13)-c1cc(C(O)CCC3CCCCC3)c(C)c(=O)n1C2 (centres unmarked) [5 (8Aδ)]	89	72	
CCCCCCc1c2c(nc3ccccc13)-c1cc(C(=O)CCC3CCCCC3)c(C)c(=O)n1C2 [5 (8Aδκ)]	97	63	
CCCCCCc1c2c(nc3ccccc13)-c1cc(C(O)Cc3ccccc3)c(C)c(=O)n1C2 (centres unmarked) [5 (8Aε)]	71	58	
CCCCCCc1c2c(nc3ccccc13)-c1cc(C(=O)Cc3ccccc3)c(C)c(=O)n1C2 [5 (8Aεκ)]	92	59	
CCCCCCc1c2c(nc3ccc(F)cc13)-c1cc(C(O)CC)c(C)c(=O)n1C2 (centres unmarked) [5 (8Bα)]	80	57	
CCCCCCc1c2c(nc3ccc(F)cc13)-c1cc(C(=O)CC)c(C)c(=O)n1C2 [5 (8Bακ)]	103	64	
CCCCCCc1c2c(nc3ccc(F)cc13)-c1cc(C(O)C(C)(C)C)c(C)c(=O)n1C2 (centres unmarked) [5 (8Bβ)]	97	50	

Structure (SMILES)	Residual activity (%) RNase H [1] [%]	Residual activity (%) Polymerase [2] [%]	further results
CCCCCCc1c2c(nc3ccc(F)cc13)-c1cc(C(=O)C(C)(C)C)c(C)c(=O)n1C2 [5 (8Bβκ)]	81	44	
CCCCCCc1c2c(nc3ccc(F)cc13)-c1cc(C(O)CCC3CCCCC3)c(C)c(=O)n1C2 (centres unmarked) [5 (8Bδ)]	112	90	
CCCCCCc1c2c(nc3ccc(F)cc13)-c1cc(C(=O)CCC3CCCCC3)c(C)c(=O)n1C2 [5 (8Bδκ)]	95	80	
CCCCCCc1c2c(nc3ccc(F)cc13)-c1cc(C(O)Cc3ccccc3)c(C)c(=O)n1C2 (centres unmarked) [5 (8Bε)]	84	92	
CCCCCCc1c2c(nc3ccc(C)cc13)-c1cc(C(O)CC)c(C)c(=O)n1C2 (centres unmarked) [5 (8Cα)]	65	84	
CCCCCCc1c2c(nc3ccc(C)cc13)-c1cc(C(=O)CC)c(C)c(=O)n1C2 [5 (8Cακ)]	92	31	
CCCCCCc1c2c(nc3ccc(C)cc13)-c1cc(C(O)C(C)(C)C)c(C)c(=O)n1C2 (centres unmarked) [5 (8Cβ)]	93	111	
CCCCCCc1c2c(nc3ccc(C)cc13)-c1cc(C(=O)C(C)(C)C)c(C)c(=O)n1C2 [5 (8Cβκ)]	95	66	
CCCCCCc1c2c(nc3ccc(C)cc13)-c1cc(C(O)CCC3CCCCC3)c(C)c(=O)n1C2 (centres unmarked) [5 (8Cδ)]	72	73	
CCCCCCc1c2c(nc3ccc(C)cc13)-c1cc(C(=O)CCC3CCCCC3)c(C)c(=O)n1C2 [5 (8Cδκ)]	95	79	
CCCCCCc1c2c(nc3ccc(C)cc13)-c1cc(C(O)Cc3ccccc3)c(C)c(=O)n1C2 (centres unmarked) [5 (8Cε)]	76	76	
CCCCCCc1c2c(nc3ccc(C)cc13)-c1cc(C(=O)Cc3ccccc3)c(C)c(=O)n1C2 [5 (8Cεκ)]	86	66	
CCCCCCc1c2c(nc3ccc(OC)cc13)-c1cc(C(O)CC)c(C)c(=O)n1C2 (centres unmarked) [5 (8Dα)]	66	85	
CCCCCCc1c2c(nc3ccc(OC)cc13)-c1cc(C(=O)CC)c(C)c(=O)n1C2 [5 (8Dακ)]	84	51	
CCCCCCc1c2c(nc3ccc(OC)cc13)-c1cc(C(O)C(C)(C)C)c(C)c(=O)n1C2 (centres unmarked) [5 (8Dβ)]	67	68	
CCCCCCc1c2c(nc3ccc(OC)cc13)-c1cc(C(=O)C(C)(C)C)c(C)c(=O)n1C2 [5 (8Dβκ)]	88	90	
CCCCCCc1c2c(nc3ccc(OC)cc13)-c1cc(C(O)CCC3CCCCC3)c(C)c(=O)n1C2 (centres unmarked) [5 (8Dδ)]	63	81	
CCCCCCc1c2c(nc3ccc(OC)cc13)-c1cc(C(=O)CCC3CCCCC3)c(C)c(=O)n1C2 [5 (8Dδκ)]	90	65	
CCCCCCc1c2c(nc3ccc(OC)cc13)-c1cc(C(O)Cc3ccccc3)c(C)c(=O)n1C2 (centres unmarked) [5 (8Dε)]	82	73	
Cc1ccc2nc3c(c(-c4ccccc4)c2c1)Cn1c-3cc(C(O)C(C)(C)C)c(C)c1=O (stereo not drawn) [5 (30β)]	84	70	
Cc1ccc2nc3c(c(-c4ccccc4)c2c1)Cn1c-3cc(C(O)CCC2CCCCC2)c(C)c1=O (centres unmarked) [5 (30δ)]	93	74	
CCC(O)c1cc2n(c(=O)c1C)Cc1c-2nc2ccccc2c1[Si](C)(C)C (centres unmarked) [5 (AG 1M)]			Residual activity (%) RNase H ([1]; 10 µM): 73%; Residual activity (%) Polymerase ([2]; 10 µM): 89%
CCC(O)c1cc2n(c(=O)c1C)Cc1c-2nc2ccc(N)cc2c1[Si](C)(C)C (centres unmarked) [5 (AG 3M), 2-Amino-7-(1-hydroxypropyl)-8-methyl-12-trimethylsilanyl-1 1H-indolizino[1,2-b]quinolin-9-one]			remaining activity at 10 µM ([1]; read-out: Residual activity (%) RNase H): 63%; remaining activity at 10 µM ([2]; read-out: Residual activity (%) Polymerase): 123%
CCc1c2c(nc3ccccc13)-c1cc(C(O)CC)c(C)c(=O)n1C2 (centres unmarked) [5 (AG 4M)]	74	100	
